Key:
[1] = molecular target: Dual specificity mitogen-activated protein kinase kinase 1 (Homo sapiens, UniProt Q02750)
Description: Inhibition of MEK1-mediated ERK2 T202/Y204 phosphorylation using biotinylated MBP as substrate preincubated for 30 mins measured after 100 mins by cRAF-MEK-ERK enzyme coupled assay

Plasma [2] = assay: Drug metabolism in plasma of nude NCr mouse xenografted with human MDA-MB-231T cells assessed as 3,4-difluoro-2-(2-fluoro-4-iodophenylamino)benzoic acid level at 30 mg/kg, po measured after 2 hrs by LC-MS analysis; format: ADME, organism-based; design: dose 30 mg/kg, route oral; details: in vivo
[3] = molecular target: Dual specificity mitogen-activated protein kinase kinase; MEK1/2 (Homo sapiens, UniProt P36507+Q02750)
Description: Inhibition of MEK-mediated ERK T202/Y204 phosphorylation in human MDA-MB-231T cells after 1 hr by immunoblotting

Plasma [4] = assay: Drug metabolism in plasma of nude NCr mouse xenografted with human MDA-MB-231T cells assessed as 3,4-difluoro-2-(2-fluoro-4-iodophenylamino)benzoic acid level at 30 mg/kg, po measured after 24 hrs by LC-MS analysis; format: ADME, organism-based; design: dose 30 mg/kg, route oral; details: in vivo
[5] = Drug metabolism in tumor of nude NCr mouse xenografted with human MDA-MB-231T cells assessed as 3,4-difluoro-2-(2-fluoro-4-iodophenylamino)benzoic acid level at 30 mg/kg, po measured after 2 hrs by LC-MS analysis; format: ADME, organism-based, Neoplasm; design: dose 30 mg/kg, route oral; details: in vivo
Brain [6] = assay: Drug metabolism in brain of nude NCr mouse xenografted with human MDA-MB-231T cells assessed as 3,4-difluoro-2-(2-fluoro-4-iodophenylamino)benzoic acid level at 30 mg/kg, po measured after 2 hrs by LC-MS analysis; format: ADME, organism-based; design: dose 30 mg/kg, route oral; details: in vivo
Brain [7] = assay: Drug metabolism in brain of nude NCr mouse xenografted with human MDA-MB-231T cells assessed as 3,4-difluoro-2-(2-fluoro-4-iodophenylamino)benzoic acid level at 30 mg/kg, po measured after 24 hrs by LC-MS analysis; format: ADME, organism-based; design: dose 30 mg/kg, route oral; details: in vivo
[8] = Drug metabolism in tumor of nude NCr mouse xenografted with human MDA-MB-231T cells assessed as 3,4-difluoro-2-(2-fluoro-4-iodophenylamino)benzoic acid level at 30 mg/kg, po measured after 24 hrs by LC-MS analysis; format: ADME, organism-based, Neoplasm; design: dose 30 mg/kg, route oral; details: in vivo
[9] = Half life in Sprague-Dawley rat at 5 mg/kg, po; format: ADME, organism-based; design: dose 5 mg/kg, route oral; details: in vivo
[10] = Oral bioavailability in Sprague-Dawley rat at 5 mg/kg; format: ADME, organism-based; details: in vivo
Mus musculus [11] = assay: Inhibition of MEK-mediated ERK T202/Y204 phosphorylation in human MDA-MB-231T cells xenografted in nude NCr mouse tumor at 30 mg/kg, po after 24 hrs by immunoblotting; format: functional
Mus musculus [12] = assay: Inhibition of MEK-mediated ERK T202/Y204 phosphorylation in po dosed nude NCr mouse brain xenografted with human MDA-MB-231T cells from 2 to 24 hrs by immunoblotting; format: functional
Mus musculus [13] = assay: Inhibition of MEK-mediated ERK T202/Y204 phosphorylation in nude NCr mouse brain xenografted with human MDA-MB-231T cells at 30 mg/kg, po after 2 hrs by immunoblotting; format: functional
[14] = Apparent permeability across MDCK cells; format: ADME, cell-based, Canis lupus familiaris; details: dog
[15] = Plasma concentration in nude NCr mouse xenografted with human MDA-MB-231T cells at 30 mg/kg, po measured after 2 hrs by LC-MS analysis; format: ADME, organism-based; design: dose 30 mg/kg, route oral
[16] = Drug uptake in tumor of nude NCr mouse xenografted with human MDA-MB-231T cells at 30 mg/kg, po measured after 24 hrs by LC-MS analysis; format: ADME, organism-based, Neoplasm; design: dose 30 mg/kg, route oral; details: read-out: Drug uptake
[17] = Drug uptake in tumor of nude NCr mouse xenografted with human MDA-MB-231T cells at 30 mg/kg, po measured after 2 hrs by LC-MS analysis; format: ADME, organism-based, Neoplasm; design: dose 30 mg/kg, route oral; details: read-out: Drug uptake
[18] = Drug metabolism in rat liver microsomes at 15 uM after 30 mins; format: ADME, Microsome; details: read-out: Drug metabolism
Mus musculus [19] = assay: Inhibition of MEK-mediated ERK T202/Y204 phosphorylation in nude NCr mouse brain xenografted with human MDA-MB-231T cells at 30 mg/kg, po after 24 hrs by immunoblotting; format: functional
[20] = Clearance in Sprague-Dawley rat at 5 mg/kg, po; format: ADME, organism-based; design: dose 5 mg/kg, route oral; details: in vivo
[21] = Drug uptake in brain of nude NCr mouse xenografted with human MDA-MB-231T cells at 30 mg/kg, po measured after 24 hrs by LC-MS analysis; format: ADME, organism-based; design: dose 30 mg/kg, route oral; details: read-out: Drug uptake
Mus musculus [22] = assay: Inhibition of MEK-mediated ERK T202/Y204 phosphorylation in human MDA-MB-231T cells xenografted in nude NCr mouse tumor at 30 mg/kg, po after 2 hrs by immunoblotting; format: functional
Rattus norvegicus = assay: Dose normalised AUC (0 to t) in Sprague-Dawley rat at 5 mg/kg, po; format: ADME, organism-based; design: dose 5 mg/kg, route oral; details: in vivo
[23] = Plasma concentration in nude NCr mouse xenografted with human MDA-MB-231T cells at 30 mg/kg, po measured after 24 hrs by LC-MS analysis; format: ADME, organism-based; design: dose 30 mg/kg, route oral
[24] = Drug uptake in brain of nude NCr mouse xenografted with human MDA-MB-231T cells at 30 mg/kg, po measured after 2 hrs by LC-MS analysis; format: ADME, organism-based; design: dose 30 mg/kg, route oral; details: read-out: Drug uptake

Chain of Dual specificity mitogen-activated protein kinase kinase 1 (Q02750 whole entry): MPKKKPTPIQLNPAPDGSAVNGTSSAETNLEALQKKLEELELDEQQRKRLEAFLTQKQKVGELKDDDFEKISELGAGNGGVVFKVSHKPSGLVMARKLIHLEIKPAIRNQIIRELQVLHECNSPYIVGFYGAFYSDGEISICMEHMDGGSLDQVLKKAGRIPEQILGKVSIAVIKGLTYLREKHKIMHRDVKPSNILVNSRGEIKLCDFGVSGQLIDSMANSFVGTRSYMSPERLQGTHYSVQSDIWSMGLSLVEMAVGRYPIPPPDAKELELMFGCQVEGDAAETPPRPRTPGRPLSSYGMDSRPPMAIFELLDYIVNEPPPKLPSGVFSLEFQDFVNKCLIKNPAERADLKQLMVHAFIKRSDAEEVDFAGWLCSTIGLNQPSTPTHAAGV

O=C(O)c1ccc(F)c(F)c1Nc1ccc(I)cc1F
IC50 [1]: 19.5 nM
Drug metabolism (Plasma [2]): 0.01 µM
IC50 [3]: 102 nM
Drug metabolism (Plasma [4]): 0.21 µM
Drug metabolism [5]: < 0.005 µM
Drug metabolism (Brain [6]): < 0.005 µM
Drug metabolism (Brain [7]): < 0.005 µM
Drug metabolism [8]: < 0.005 µM

NCC1(O)CN(C(=O)c2ccc(F)c(F)c2Nc2ccc(I)cc2F)C1
IC50 [1]: 6.6 nM
half-life [9]: 9.1 h
bioavailability [10]: 78%
inhibition in vivo at 30 mg/kg (Mus musculus [11]): 44%
ED50 (Mus musculus [12]): > 30 mg/kg
inhibition in vivo at 30 mg/kg (Mus musculus [13]): 23%
Papp [14]: 4.3 ×10⁻⁶ cm/s
concentration at 2 h [15]: 2400 nM
concentration at 24 h [16]: 26800 nM
IC50 [3]: 57 nM
concentration at 2 h [17]: 7360 nM
metabolised at 0.5 h, 15 µM [18]: 16.2%
inhibition in vivo at 30 mg/kg (Mus musculus [19]): 17%
CL/F [20]: 12.6 mL/min/kg
concentration at 24 h [21]: 1240 nM
inhibition in vivo at 30 mg/kg (Mus musculus [22]): 27%
AUCt/dose (Rattus norvegicus): 1.57 µM·h/mg/kg
concentration at 24 h [23]: 30 nM
concentration at 2 h [24]: 730 nM

CN(C)CC1(O)CN(C(=O)c2ccc(F)c(F)c2Nc2ccc(I)cc2F)C1
IC50 [1]: 5.1 nM
IC50 [3]: 14 nM

O=C(c1ccc(F)c(F)c1Nc1ccc(I)cc1F)N1CC(O)(CN2CCCC2)C1
IC50 [1]: 7.6 nM
IC50 [3]: 50 nM
